For two compounds, EC50 and pKa results are on record in article PMC12828764, “The electrophilic metabolite of kynurenine, kynurenine-CKA, requires C151 in Keap1 to derepress Nrf2” (Redox Biology, 2025).

One series concerns T1, Keap1.
T1 construct: cell lysate CETSA
Description: intact-protein MS and MS/MS adduct mapping, UV-Vis reaction kinetics with purified Keap1-BTB (no reaction with C151S); the IC50 is from ITDRF-CETSA of Keap1-mCherry in cell lysate. The series is classed as binding.

The next series concerns the target Cys151 (UniProt position 151, SMGEKCVLHVM). The settings on record: not stated (reduced, unmodified C151 implied); cited from earlier work.

What is called EC50 is the concentration at which the effect is half-maximal. In the case of `Nc1ccccc1C(=O)/C=C/C(=O)O` (mixture of isomers) [Kyn-CKA, (E)- and (Z)-(4-(2-aminophenyl)-4-oxobut-2-enoic acids], a half-maximal effect with Keap1 (EC50) was put at 12 µM.
As usually defined, the pKa is the pH at which an ionisable group is half protonated. With “Kelch-like ECH-associated protein 1 (Keap1), BTB domain (not stated for the recombinant protein (probably Homo sapiens, inferred))”, the pKa with Cys151 is 6.9.
